In patent US10023590B2, “Substituted pyridine compounds having herbicidal activity” (BASF SE, priority 2014, dated 2018):
Where two headings read alike, the source gives them in different places.

Legend:
Assay type in all cases: in vivo
Abutilon theophrasti = test: Greenhouse post-emergence herbicidal activity, ABUTH; conditions: ABUTH
Excerpt: (§1) The culture containers used were plastic flowerpots containing loamy sand with approximately 3.0% of humus as the substrate. The seeds of the test plants were sown separately for each species.
(§2) For the post-emergence treatment, the test plants were first grown to a height of 3 to 15 cm, depending on the plant habit, and only then treated with the active ingredients which had been suspended or emulsified in water. For this purpose, the test plants were either sown directly and grown in the same containers, or they were first grown separately as seedlings and transplanted into the test containers a few days prior to treatment.
(§3) Depending on the species, the plants were kept at 10-25° C. or 20-35° C., respectively.
(§4) The test period extended over 2 to 4 weeks. During this time, the plants were tended, and their response to the individual treatments was evaluated.
(§5) Evaluation was carried out using a scale from 0 to 100. 100 means no emergence of the plants, or complete destruction of at least the aerial moieties, and 0 means no damage, or normal course of growth. A good herbicidal activity is given at values of at least 70 and a very good herbicidal activity is given at values of at least 85.

Amaranthus retroflexus = test: Greenhouse post-emergence herbicidal activity, AMARE; conditions: AMARE
Excerpt: as §1, §2, §3, §4, §5

Chenopodium album = test: Greenhouse post-emergence herbicidal activity, CHEAL
Excerpt: as §1, §2, §3, §4, §5

Cirsium arvense = test: Greenhouse post-emergence herbicidal activity, CIRAR; conditions: CIRAR, 0.125 kg/ha, scale 0 to 100
Excerpt: as §1, §2, §3, §4, §5

Echinocloa crus-galli = test: Greenhouse post-emergence herbicidal activity, ECHCG; conditions: Echinochloa crus-galli, ECHCG
Excerpt: as §1, §2, §3, §4, §5

Kochia scoparia = test: Greenhouse post-emergence herbicidal activity, KCHSC; conditions: scale 0 to 100
Excerpt: as §1, §2, §3, §4, §5

Oryza sativa = test: Greenhouse post-emergence herbicidal activity on crop ORYSA (rice)
Excerpt: as §1, §2, §3, §4, §5

Zea mays = test: Greenhouse post-emergence herbicidal activity on crop ZEAMX (corn, maize); set-up: key: 0 = no damage/normal growth, 100 = no emergence or complete destruction
Excerpt: as §1, §2, §3, §4, §5

Ambrosia artemisiifolia = test: Greenhouse post-emergence herbicidal activity, AMBEL; conditions: scale 0 to 100
Excerpt: as §1, §2, §3, §4, §5

Setaria viridis = test: Greenhouse post-emergence herbicidal activity, SETVI
Excerpt: as §1, §2, §3, §4, §5

Stellaria media = test: Greenhouse post-emergence herbicidal activity, STEME
Excerpt: as §1, §2, §3, §4, §5

[1] = 2 kg/ha, scale 0 to 100, read-out: Herbicidal activity
[2] = ORYSA (rice, crop), 0.031 kg/ha, scale 0 to 100
[3] = ORYSA (rice, crop), 0.063 kg/ha, scale 0 to 100
[4] = ZEAMX (corn, crop), 0.031 kg/ha, scale 0 to 100
[5] = ZEAMX (corn, crop), 0.063 kg/ha, scale 0 to 100
[6] = ORYSA (rice, crop), 0.125 kg/ha, scale 0 to 100
[7] = ZEAMX (corn, crop), 0.125 kg/ha, scale 0 to 100
[8] = application rate 2 kg/ha, read-out: Herbicidal activity
[9] = crop ZEAMX (corn, maize), application rate 0.031 kg/ha
[10] = crop ORYSA (rice), application rate 0.031 kg/ha
[11] = crop ZEAMX (corn, maize), application rate 0.063 kg/ha
[12] = crop ZEAMX (corn, maize), application rate 0.125 kg/ha

| Compound | pest or weed control at 2000 g/ha (Abutilon theophrasti; [1]) | pest or weed control at 31 g/ha (Amaranthus retroflexus; 0.031 kg/ha, scale 0 to 100) | pest or weed control at 63 g/ha (Amaranthus retroflexus; 0.063 kg/ha, scale 0 to 100) | pest or weed control at 125 g/ha (Amaranthus retroflexus; 0.125 kg/ha, scale 0 to 100) | pest or weed control at 2000 g/ha (Amaranthus retroflexus; [1]) | pest or weed control at 31 g/ha (Chenopodium album; 0.031 kg/ha, scale 0 to 100) | pest or weed control at 63 g/ha (Chenopodium album; 0.063 kg/ha, scale 0 to 100) | pest or weed control at 125 g/ha (Chenopodium album; 0.125 kg/ha, scale 0 to 100) | pest or weed control at 2000 g/ha (Echinocloa crus-galli; [1]) | Herbicidal activity (Oryza sativa; [2]) | Herbicidal activity (Oryza sativa; [3]) | pest or weed control at 31 g/ha (Echinocloa crus-galli; 0.031 kg/ha, scale 0 to 100) | pest or weed control at 63 g/ha (Echinocloa crus-galli; 0.063 kg/ha, scale 0 to 100) | pest or weed control at 125 g/ha (Echinocloa crus-galli; 0.125 kg/ha, scale 0 to 100) | Herbicidal activity (Zea mays; [4]) | Herbicidal activity (Zea mays; [5]) | Herbicidal activity (Oryza sativa; [6]) | Herbicidal activity (Zea mays; [7]) | pest or weed control at 125 g/ha (Amaranthus retroflexus; application rate 0.125 kg/ha) | pest or weed control at 63 g/ha (Chenopodium album; application rate 0.063 kg/ha) | further results |
| --- | --- | --- | --- | --- | --- | --- | --- | --- | --- | --- | --- | --- | --- | --- | --- | --- | --- | --- | --- | --- | --- |
| CC1(C)c2cccnc2C(O)=C(c2c(Cl)ccc(NS(C)(=O)=O)c2Cl)S1(=O)=O [I-6, N-[2,4-dichloro-3-(8-hydroxy-5,5-dimethyl-6,6-dioxo-thiopyrano[4,3-b]pyridin-7-yl)phenyl]methanesulfonamide] | 100% | 85% | 95% | 98% | 100% | 95% | 98% | 98% | 100% | 0 | 40 |  |  |  |  |  |  |  |  |  | pest or weed control at 125 g/ha (Cirsium arvense): 100%; Herbicidal activity (Kochia scoparia; 0.031 kg/ha): 90; Herbicidal activity (Kochia scoparia; 0.063 kg/ha): 98 |
| CCN(c1c(Cl)ccc(C2=C(O)c3ncccc3CS2(=O)=O)c1Cl)S(C)(=O)=O [I-8, N-[2,6-dichloro-3-(8-hydroxy-6,6-dioxo-5H-thiopyrano[4,3-b]pyridin-7-yl)phenyl]-N-ethyl-methanesulfonamide] | 100% | 100% | 90% |  | 100% | 100% | 100% | 100% | 100% | 0 | 25 | 90% | 95% | 95% | 0 | 0 |  |  |  |  |  |
| Cc1c(C2=C(OC(=O)C(C)(C)C)c3ncccc3C(C)(C)S2(=O)=O)cccc1N(C)S(C)(=O)=O [I-13, [5,5-dimethyl-7-[2-methyl-3-[methyl(methylsulfonyl)amino]phenyl]-6,6-dioxo-thiopyrano[4,3-b]pyridin-8-yl] 2,2-dimethylpropanoate] |  |  |  |  | 100% |  |  |  | 75% |  |  |  |  |  |  |  | 0 | 0 |  |  | Herbicidal activity (Kochia scoparia; 0.125 kg/ha): 90 |
| CN(c1cccc(C2=C(O)c3ncccc3C(C)(C)S2(=O)=O)c1Cl)S(C)(=O)=O [I-17, N-[2-chloro-3-(8-hydroxy-5,5-dimethyl-6,6-dioxo-thiopyrano[4,3-b]pyridin-7-yl)phenyl]-N-methyl-methanesulfonamide] | 100% | 98% | 100% | 100% | 100% | 100% | 100% | 100% | 100% |  | 10 | 95% |  |  |  |  |  |  |  |  | Herbicidal activity (Ambrosia artemisiifolia; 0.063 kg/ha): 100; Herbicidal activity (Ambrosia artemisiifolia; 0.125 kg/ha): 100 |
| CN(C)S(=O)(=O)Oc1c(Cl)ccc(C2=C(O)c3ncccc3CS2(=O)=O)c1Cl [I-22] |  |  | 70% | 75% | 100% |  | 95% | 100% | 100% | 30 | 35 | 80% | 90% | 95% | 0 | 0 | 40 | 15 |  |  | Herbicidal activity (Setaria viridis; 2 kg/ha, scale 0 to 100): 98 |
| Cc1c(C2=C(O)c3ncccc3C(C)(C)S2(=O)=O)ccc(Cl)c1N(C)S(C)(=O)=O [I-29, N-[6-chloro-3-(8-hydroxy-5,5-dimethyl-6,6-dioxo-thiopyrano[4,3-b]pyridin-7-yl)-2-methyl-phenyl]-N-methyl-methanesulfonamide] |  | 95% | 95% | 98% |  | 98% | 98% | 98% |  | 0 | 25 | 85% | 90% | 95% | 0 | 5 | 35 | 15 |  |  | pest or weed control at 250 g/ha (Amaranthus retroflexus; 0.25 kg/ha, scale 0 to 100): 98%; pest or weed control at 250 g/ha (Chenopodium album; 0.25 kg/ha, scale 0 to 100): 98%; Herbicidal activity (Stellaria media; 0.25 kg/ha, scale 0 to 100): 98 |
| CN(c1c(Cl)ccc(C2=C(OC(=O)C(C)(C)C)c3ncccc3C(C)(C)S2(=O)=O)c1Cl)S(C)(=O)=O [I-30] |  |  |  |  |  |  |  |  |  |  |  |  |  |  |  |  |  |  |  |  | pest or weed control at 2000 g/ha (Abutilon theophrasti; [8]): 100%; pest or weed control at 2000 g/ha (Amaranthus retroflexus; [8]): 100%; pest or weed control at 2000 g/ha (Echinocloa crus-galli; [8]): 100% |
| CN(c1c(Cl)ccc(C2=C(O)c3ncccc3CS2(=O)=O)c1C(F)(F)F)S(C)(=O)=O [I-31, N-[6-chloro-3-(8-hydroxy-6,6-dioxo-5H-thiopyrano[4,3-b]pyridin-7-yl)-2-(trifluoromethyl)phenyl]-N-methyl-methanesulfonamide] |  |  |  |  |  |  |  |  |  |  |  |  |  |  |  |  |  |  | 98% | 98% | pest or weed control at 31 g/ha (Abutilon theophrasti; application rate 0.031 kg/ha): 70%; pest or weed control at 63 g/ha (Abutilon theophrasti; application rate 0.063 kg/ha): 90%; pest or weed control at 250 g/ha (Amaranthus retroflexus; application rate 0.25 kg/ha): 98%; pest or weed control at 125 g/ha (Chenopodium album; application rate 0.125 kg/ha): 98%; pest or weed control at 250 g/ha (Chenopodium album; application rate 0.25 kg/ha): 98%; pest or weed control at 125 g/ha (Echinocloa crus-galli; application rate 0.125 kg/ha): 98%; pest or weed control at 250 g/ha (Echinocloa crus-galli; application rate 0.25 kg/ha): 98%; Herbicidal activity (Stellaria media; application rate 0.031 kg/ha): 80; Herbicidal activity (Stellaria media; application rate 0.063 kg/ha): 100; Herbicidal activity (Zea mays; [9]): 5 |
| CN(c1cccc(C2=C(O)c3ncccc3C(C)(C)S2(=O)=O)c1C(F)(F)F)S(C)(=O)=O [I-36, N-[3-(8-hydroxy-5,5-dimethyl-6,6-dioxo-thiopyrano[4,3-b]pyridin-7-yl)-2-(trifluoromethyl)phenyl]-N-methyl-methanesulfonamide] |  |  |  |  |  |  |  |  |  |  |  |  |  |  |  |  |  |  | 98% | 100% | pest or weed control at 31 g/ha (Amaranthus retroflexus; application rate 0.031 kg/ha): 90%; pest or weed control at 63 g/ha (Amaranthus retroflexus; application rate 0.063 kg/ha): 95%; pest or weed control at 31 g/ha (Chenopodium album; application rate 0.031 kg/ha): 100%; pest or weed control at 125 g/ha (Chenopodium album; application rate 0.125 kg/ha): 100%; pest or weed control at 31 g/ha (Echinocloa crus-galli; application rate 0.031 kg/ha): 70%; pest or weed control at 63 g/ha (Echinocloa crus-galli; application rate 0.063 kg/ha): 90%; pest or weed control at 125 g/ha (Echinocloa crus-galli; application rate 0.125 kg/ha): 95%; Herbicidal activity (Oryza sativa; [10]): 30; Herbicidal activity (Oryza sativa; crop ORYSA (rice), application rate 0.063 kg/ha): 40; Herbicidal activity (Oryza sativa; crop ORYSA (rice), application rate 0.125 kg/ha): 45; Herbicidal activity (Zea mays; [9]): 0; Herbicidal activity (Zea mays; [11]): 0; Herbicidal activity (Zea mays; [12]): 0 |
| CN(c1c(Cl)ccc(C2=C(O)c3ncc(F)cc3C(C)(C)S2(=O)=O)c1Cl)S(C)(=O)=O [I-38, N-[2,6-dichloro-3-(3-fluoro-8-hydroxy-5,5-dimethyl-6,6-dioxo-thiopyrano[4,3-b]pyridin-7-yl)phenyl]-N-methyl-methanesulfonamide] |  |  |  |  |  |  |  |  |  |  |  |  |  |  |  |  |  |  | 98% | 95% | pest or weed control at 31 g/ha (Amaranthus retroflexus; application rate 0.031 kg/ha): 98%; pest or weed control at 63 g/ha (Amaranthus retroflexus; application rate 0.063 kg/ha): 98%; pest or weed control at 31 g/ha (Chenopodium album; application rate 0.031 kg/ha): 98%; pest or weed control at 125 g/ha (Chenopodium album; application rate 0.125 kg/ha): 98%; pest or weed control at 31 g/ha (Echinocloa crus-galli; application rate 0.031 kg/ha): 95%; pest or weed control at 63 g/ha (Echinocloa crus-galli; application rate 0.063 kg/ha): 95%; pest or weed control at 125 g/ha (Echinocloa crus-galli; application rate 0.125 kg/ha): 100%; Herbicidal activity (Oryza sativa; [10]): 35; Herbicidal activity (Setaria viridis; application rate 0.125 kg/ha): 100; Herbicidal activity (Zea mays; [9]): 0; Herbicidal activity (Zea mays; [11]): 0; Herbicidal activity (Zea mays; [12]): 15 |
